Assay results: patent publication US8252283B2, “Method for treating vascular disorders” (Cytotools GmbH, priority 1999, dated 2012)
“Also recorded” adds a separate entry of the source.

Columns and labels:
HUVEC [1] = assay: Apoptosis rate after cone and plate shear pre-cultivation and transfer to static wells, DAPI staining (Examples 11, 12); format: cell-based, human; settings: for Apoptosis rate (%) with EGTA and with peptides: 0.5 mM EGTA, RGD peptide 250 μg/ml + IAP peptide 400 μg/ml
Procedure: The cone and plate shear apparatus is first cleaned with a soft cloth and 70% ethanol, the cone is sterilized, and the apparatus is then stabilized at 37° C. in a heating cabinet for at least 30 min. The precultivated cells are washed with culture medium and provided with 0.06 ml/cm^2 fresh culture medium, and the culture dish is rapidly fitted into the cone and plate shear apparatus.
The cone is raised using the coarse adjustment, and the culture dish together with lid is carefully inserted into the holder provided therefor. The lid is taken off and the cone is lowered onto the culture dish and adjusted: the tip of a cone is then a minimal distance from the cell lawn and the cone moves round without abrading. The assembled cone and plate shear apparatus is placed in an incubator at 37° C., 5% (v/v) CO2 with a water vapor-saturated atmosphere for dynamic cultivation of the cells.
(§1) The culture supernatant is aspirated off of a Petri dish, and the cell lawn is fixed with 1 ml of formaldehyde solution on ice for 15 minutes, washed twice with 2 ml of PBS, treated with 0.5 ml of DAPI solution for 15 minutes, washed with PBS and evaluated under a fluorescence microscope. The UV filter set and a 20× or 40× objective are used. 500-1 000 cells are selected at random, and the cells with apoptotic nuclei are counted.
The culture dish is removed and divided into 12 independent culture wells (culture area of each well 0.8 cm^2) by putting in a suitable insert. Half of the culture is cultivated in culture medium with EGTA and the second half is cultivated in culture medium without EGTA. […] The apoptosis rate is determined by staining the apoptotic cells with DAPI.

[2] = tested on: human umbilical vein endothelial cells (HUVEC); assay: Apoptosis rate of confluent endothelial cells in static culture, DAPI staining; format: cell-based; settings: for Effect on the apoptosis rate (in words): substance(s) added to fresh medium
Procedure: HUVEC are cultivated in gelatin-coated culture vessels at 37° C., 5% CO2 with a water vapor-saturated air atmosphere. The culture medium is changed every 2-3 days; at confluence, the cells are passaged with a division rate of from 1:3 to 1:5. HUVEC grow with strict contact inhibition and form monolayer cell lawns with a typical cobblestone morphology. At confluence, the cultures reach cell densities of 4-9×10^4 cells/cm^2. Only HUVEC cultures of passages 1-4 are used for apoptosis investigations.
as §1
The apoptosis index is calculated by the following formula: […]
(§2) After complete confluence is reached, the cells are employed for the test. Firstly, thrombospondin 1 is added in various concentrations (1-600 μg/ml) to fresh medium and compared with the effect of conditioned medium on the spontaneous apoptosis rate of HUVEC. […] The apoptosis rate is determined by staining apoptotic cells with DAPI.
The cells are seeded into the appropriate culture vessels (e.g. 24-well plate/0.5 ml per well) and employed for the test after complete confluence is reached. Investigations into the effect of various peptides and proteins (table 2) on the apoptosis rate of endothelial cells are carried out.
The cells are seeded in the appropriate culture vessels (e.g. 24-well plate/0.5 ml per well) and employed for the test after complete confluence is reached. […] The apoptotic cells and the total cell count are determined and the apoptosis index is calculated (percent of apoptotic cells). The data of 3 independent experiments are indicated in table 1, stating the mean and standard deviation.

perfused HUVEC = assay: Apoptosis rate of endothelial cells in dynamic (perfusion) culture, DAPI staining; format: cell-based, human; settings: for Effect on apoptosis (in words): perfusion culture
Procedure: as §1, §2

HUVEC [3] = assay: Induced calcium influx into the cells, intracellular calcium indicator Fluo-3 AM; format: cell-based, human; settings: static culture, measured at addition of substance
Procedure: Fluo-3 is a calcium indicator which forms a fluorescent complex after binding of Ca^2+. The ester Fluo-3 AM is taken up by the cells through diffusion. The calcium indicator Fluo 3 is produced only after hydrolysis of the ester in the cell. […] The measurement is carried out with normal fluorescein filters. At an excitation wavelength of 488 nm (500 nm), the emission maximum is at 525 nm and increases by a factor of 100 (200) through calcium binding.
Confluent HUVEC cell lawns in 24-well plates are washed three times with serum-free medium, incubated with preheated serum-free medium with Fluo-3 AM under culture conditions for 30 minutes and washed three times, and the plate is measured with a fluorimeter. First the sensitivity of the instrument is adjusted, and then fluorescence values corresponding to the instantaneous calcium level in the cell are recorded every 1-10 seconds. Substances can be added to the cells while the measurement is taking place. […] Assessment of the calcium level is possible with this method.
The influx of calcium into the cells can be employed as early indicator.
The test system can also be carried out with the calcium indicator Fluo-3 AM. […] The cells are employed for the test after complete confluence is reached. […] During the measurement, the substances b, c, e, f, g are added to the cells. […]

[4] = static, 48 h, substance(s) in fresh medium, TSP 1 μg/ml, RGD 250 μg/ml, CBD 400 μg/ml

## O=C(O)CN(CCOCCOCCN(CC(=O)O)CC(=O)O)CC(=O)O [EGTA]
HUVEC [1]; 0 hours
  Apoptosis rate (%) with EGTA [2.5 mM]: 0.40 ± 0.22%
  Apoptosis rate (%) with EGTA and with peptides: 0.45 ± 0.24%
HUVEC [1]; 2 hours
  Apoptosis rate (%) with EGTA [2.5 mM]: 0.42 ± 0.22%
  Apoptosis rate (%) with EGTA and with peptides: 1.00 ± 0.29%
HUVEC [1]; 3 hours
  Apoptosis rate (%) with EGTA [2.5 mM]: 0.96 ± 0.27%
  Apoptosis rate (%) with EGTA and with peptides: 0.65 ± 0.24%
HUVEC [1]; 4 hours
  Apoptosis rate (%) with EGTA [2.5 mM]: 1.56 ± 0.23%
  Apoptosis rate (%) with EGTA and with peptides: 1.25 ± 0.33%
HUVEC [1]; 5 hours
  Apoptosis rate (%) with EGTA [2.5 mM]: 2.26 ± 0.35%
HUVEC [1]; EGTA in culture medium with the active peptides
  Effect on the apoptosis rate (in words): significant reduction in the apoptosis rate
HUVEC [1]; culture medium with 2.5 mmol/l EGTA, static after shear apparatus
  Effect on the apoptosis rate (in words): significant reduction in the apoptosis rate

## Thrombospondin 1 [TSP-1]
[2]; static culture, 24 h, substance alone (in fresh medium; TSP-1 1 μg/ml, antiserum 1:20, mAb 1:30)
  Apoptosis rate (%): 3.0 ± 0.4%
[2]; static culture
  Effect on the apoptosis rate (in words): increase in spontaneous apoptosis
[2]; static culture, listed as thrombospondin
  Effect on the apoptosis rate (in words): significant increase in the apoptosis rate
[2]; static culturing conditions, TSP-1 1 μg/ml
  Apoptosis rate (%) after 24 h: 3.0 ± 0.4%
[2]; [4]
  Apoptosis rate (%): 6.9 ± 1.2%
[2]; static, 48 hours, fresh medium + TSP-1 1 μg/ml alone
  Apoptosis rate [%] (with SEM): 7.3 ± 0.6%
Perfused HUVEC; dynamic culturing conditions, TSP-1 1 μg/ml
  Apoptosis rate (%) after 24 h: <0.1%
Perfused HUVEC
  Effect on apoptosis (in words): no effect on apoptosis
Perfused HUVEC; listed as Thrombospondin
  Effect on apoptosis (in words): no effect on perfused HUVEC
HUVEC [3]
  Effect on intracellular calcium level (in words): increase in the intracellular calcium level; also recorded: calcium influx into the cell

## cyclic Arg-Gly-Asp-(D-Phe)-Val peptide [active RGD]
[2]; static culture
  Effect on the apoptosis rate (in words): no effect on the apoptosis rate
[2]; [4]
  Apoptosis rate (%): 1.2 ± 0.5%
